Like-named read-outs stand apart in the source and are kept apart here.
What was measured:
[1] = tested on: HIV-1IIIB; assay: Cellular anti-HIV assay in fresh human PBMC cultures (reverse transcriptase activity and/or p24 readout); type: cell-based
Procedure: The four modified peptides FB006M, FB007M, FB010M, and FB010KM were conjugated to human serum albumin (HSA) by mixing prior to the antiviral test. The results appear in Table 8 below, where IC50 value is the 50% viral inhibition drug concentration, and TC50 value is the 50% cytotoxicity drug concentration.
Pretitered aliquots of HIV-1IIIB was removed from the freezer (−80° C.) and thawed rapidly to room temperature in a biological safety cabinet immediately before use.
Fresh human PBMCs were isolated from screened donors, seronegative for HIV and HBV (Interstate Blood Bank, Inc.; Memphis, Tenn.). Cells were pelleted/washed 2-3 times by low speed centrifugation and resuspension in PBS to remove contaminating platelets. The Leukophoresed blood was then diluted 1:1 with Dulbecco's phosphate buffered saline (PBS) and layered over 14 mL of Lymphocyte Separation Medium in a 50 mL centrifuge tube and then centrifuged for 30 minutes at 600×g. Banded PBMCs were gently aspirated from the resulting interface and subsequently washed 2× with PBS by low speed centrifugation. After the final wash, cells were enumerated by trypan blue exclusion and re-suspended at 1×10^7 cells/mL in RPMI 1640 supplemented with 15% Fetal Bovine Serum (FBS), 2 mM L-glutamine, 4 μg/mL Phytohemagglutinin (PHA-P, Sigma). The cells were allowed to incubate for 48-72 hours at 37° C. After incubation, PBMCs were centrifuged and resuspended in RPMI 1640 with 15% FBS, 2 mM L-glutamine, 100 U/mL penicillin, 100 μg/mL streptomycin, 10 μg/mL gentamycin, and 20 U/mL recombinant human IL-2 (R&D Systems, Inc). […]
For the standard PBMC assay, PHA-P stimulated cells from at least two normal donors were pooled, diluted in fresh medium to a final concentration of 1×10^6 cells/mL, and plated in the interior wells of a 96 well round bottom microplate at 50 μL/well (5×10^4 cells/well). […] Following removal of supernatant samples, compound cytotoxicity was measured by addition of MTS to the plates for determination of cell viability. […]

[2] = Cytotoxicity in PBMCs by MTS (secondary cytotoxicity assay, high-test concentration 25 μM); type: cell-based; conditions: human PBMCs, MTS cell viability; modified peptides conjugated with HSA; FB005, FB006 unmodified; read-out: TC50 (50% cytotoxicity drug concentration)
Procedure: For the standard PBMC assay, PHA-P stimulated cells from at least two normal donors were pooled, diluted in fresh medium to a final concentration of 1×10^6 cells/mL, and plated in the interior wells of a 96 well round bottom microplate at 50 μL/well (5×10^4 cells/well). Each plate contains virus/cell control wells (cells plus virus), experimental wells (drug plus cells plus virus) and compound control wells ([…], necessary for MTS monitoring of cytotoxicity). Since HIV-1 is not cytopathic to PBMCs, this allows the use of the same assay plate for both antiviral activity and cytotoxicity measurements. Test drug dilutions were prepared at a 2× concentration in microtiter tubes and 100 μL of each concentration was placed in appropriate wells using the standard format. 50 μL of a predetermined dilution of virus stock was placed in each test well (final MOI≈0.1). The PBMC cultures were maintained for seven days following infection at 37° C., 5% CO2, after which cell-free supernatant samples were collected for analysis of reverse transcriptase activity and/or HIV p24 content. Following removal of supernatant samples, compound cytotoxicity was measured by addition of MTS to the plates for determination of cell viability. Wells were also examined microscopically and any abnormalities noted. […]

[3] = HIV-1IIIB in fresh human PBMCs, seven days, FB006M, FB007M, FB010M, FB010KM conjugated with HSA prior to test, FB005, FB006 unmodified peptide, read-out: IC50 (50% viral inhibition drug concentration)

Substance	IC50 [1, 3]	CC50 at 7 days [2]	IC50 ([1]; FB006M and FB007M linked to serum albumin, read-out: IC50 (drug concentration for achieving 50% viral inhibition))
Ac-SLEQIWNNMTWEEWDREINNYTELIHELIEESQNQQEKNEQELL-NH2 [FB005]	0.93 nM	14300 nM	
Ac-WEEWDREINNYTKLIHELIEESQNQQEKNEQELL-NH2 [FB006]	1.41 nM	15900 nM	1.4 nM
